Assay: physchem
Conditions: pH 7

Compound: COc1cc2nc(N3CCN(C)CC3)nc(NC3CCN(Cc4ccccc4)CC3)c2cc1OC
- pKa: 5.6

Compound: COc1cc2nc(N3CCCN(C)CC3)cc(NC3CCN(Cc4ccccc4)CC3)c2cc1OC
- pKa: 10.6

Compound: COc1cc2nc(N3CCN(C)CC3)cc(NC3CCN(Cc4ccccc4)CC3)c2cc1OC
- pKa: 9.84

Compound: CN1CCCN(c2nc(NC3CCN(Cc4ccccc4)CC3)c3[nH]cnc3n2)CC1
- pKa: 3.15

Compound: c1ccc(CN2CCC(Nc3nc(N4CCCCC4)nc4ccccc34)CC2)cc1
- pKa: 7.4

Compound: CN1CCCN(c2nc(NC3CCN(Cc4ccccc4)CC3)c3ccccc3n2)CC1
- pKa: 8.06

Compound: c1ccc(CN2CCC(Nc3nc(N4CCCCC4)nc4ccoc34)CC2)cc1
- pKa: 5.31

Compound: CN1CCCN(c2nc(NC3CCN(Cc4ccccc4)CC3)c3occc3n2)CC1
- pKa: 4.57

Compound: CN1CCN(c2nc(NC3CCN(Cc4ccccc4)CC3)c3ccccc3n2)CC1
- pKa: 5.53

Compound: c1ccc(CN2CCC(Nc3nc(N4CCN(c5ccccn5)CC4)nc4ccsc34)CC2)cc1
- pKa: 6.88

Compound: CN1CCN(c2nc(NC3CCN(Cc4ccccc4)CC3)c3cc4c(cc3n2)OCO4)CC1
- pKa: 5.58

Compound: c1ccc(CN2CCC(Nc3nc(N4CCCCC4)nc4sccc34)CC2)cc1
- pKa: 3.86

Compound: c1ccc(CN2CCC(Nc3nc(N4CCN(c5ccccn5)CC4)nc4ccoc34)CC2)cc1
- pKa: 5.77

Compound: COc1cc2nc(N3CCCCC3)nc(NC3CCN(Cc4ccccc4)CC3)c2cc1OC
- pKa: 7.47

Compound: COc1cc2nc(N3CCN(c4ccccn4)CC3)nc(NC3CCN(Cc4ccccc4)CC3)c2cc1OC
- pKa: 8.1

Compound: c1ccc(CN2CCC(Nc3nc(N4CCCCC4)nc4nc[nH]c34)CC2)cc1
- pKa: 3.73

Compound: COc1cc2nc(N3CCCN(C)CC3)nc(NC3CCN(Cc4ccccc4)CC3)c2cc1OC
- pKa: 8.13

Compound: CN1CCN(c2nc(NC3CCN(Cc4ccccc4)CC3)c3sccc3n2)CC1
- pKa: 5.77

Compound: CN1CCN(c2nc(NC3CCN(Cc4ccccc4)CC3)c3occc3n2)CC1
- pKa: 4.66

Compound: CN1CCCN(c2nc(NC3CCN(Cc4ccccc4)CC3)c3ccsc3n2)CC1
- pKa: 3.28

Compound: c1ccc(CN2CCC(Nc3nc(N4CCCCC4)nc4ccsc34)CC2)cc1
- pKa: 6.42

Compound: c1ccc(CN2CCC(Nc3nc(N4CCN(c5ccccn5)CC4)nc4cc5c(cc34)OCO5)CC2)cc1
- pKa: 8.08

Compound: CN1CCCN(c2nc(NC3CCN(Cc4ccccc4)CC3)c3sccc3n2)CC1
- pKa: 5.68

Compound: CN1CCCN(c2nc3c(c(NC4CCN(Cc5ccccc5)CC4)n2)CCC3)CC1
- pKa: 6.62

Compound: c1ccc(CN2CCC(Nc3nc(N4CCN(c5ccccn5)CC4)nc4ccccc34)CC2)cc1
- pKa: 8.03

Compound: CN1CCN(c2nc(NC3CCN(Cc4ccccc4)CC3)c3ccsc3n2)CC1
- pKa: 3.35

Compound: c1ccc(CN2CCC(Nc3nc(N4CCCCC4)nc4cc5c(cc34)OCO5)CC2)cc1
- pKa: 7.45
